# Measurements reported in ChEMBL document CHEMBL1201862, “PubChem BioAssay data set” (2004).
#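 Interpolation was linear, between the two tested concentrations surrounding the appropriate level; five concentrations were tested over 48 hours in 96-well plates. The concentration for 50% growth inhibition is given as GI50.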 Calls of active or inactive are those of the source. Cut-off read from the data, not from the text of the source: active = GI50 up to about 1.1 µM and inactive = higher.
# Tests used:
# Assay in all cases: NCI tumour cell line growth inhibition, 48 h
# 786-0 = test system: 786-0
# A549 = test system: A549
# CAKI-1 = test system: CAKI-1
# COLO 205 = test system: COLO 205
# DU-145 = test system: DU-145
# HOP-62 = test system: HOP-62
# Hs-578T = test system: Hs-578T
# LOX IMVI = test system: LOX IMVI
# MDA-MB-231 = test system: MDA-MB-231
# MDA-MB-435 = test system: MDA-MB-435
# MOLT-4 = test system: MOLT-4
# NCI-H23 = test system: NCI-H23
# OVCAR-8 = test system: OVCAR-8
# SK-MEL-2 = test system: SK-MEL-2
# SK-MEL-5 = test system: SK-MEL-5
# SNB-19 = test system: SNB-19
# SW-620 = test system: SW-620
# U-251 = test system: U-251
# UACC-62 = test system: UACC-62
# UO-31 = test system: UO-31
Compound,GI50 (786-0),GI50 (A549),GI50 (CAKI-1),GI50 (COLO 205),GI50 (DU-145),GI50 (HOP-62),GI50 (Hs-578T),GI50 (LOX IMVI),GI50 (MDA-MB-231),GI50 (MDA-MB-435),GI50 (MOLT-4),GI50 (NCI-H23),GI50 (OVCAR-8),GI50 (SK-MEL-2),GI50 (SK-MEL-5),GI50 (SNB-19),GI50 (SW-620),GI50 (U-251),GI50 (UACC-62),GI50 (UO-31)
Oc1ccc(/C=N/N=c2\[nH][nH]/c(=N\N=C\c3ccc(O)cc3O)c3ccccc23)c(O)c1,0.378 µM (active),0.315 µM (active),0.268 µM (active),0.581 µM (active),0.338 µM (active),0.304 µM (active),0.29 µM (active),0.313 µM (active),0.401 µM (active),0.314 µM (active),0.0865 µM (active),0.326 µM (active),0.25 µM (active),0.288 µM (active),0.236 µM (active),0.473 µM (active),0.385 µM (active),0.2 µM (active),0.234 µM (active),0.388 µM (active)
O=C(OC1C#CCSCC#C/C=C\1)c1ccc2c(c1)C(=O)c1ccccc1C2=O (centres undefined),–,> 100 µM (inactive),37.5 µM (inactive),82.2 µM (inactive),> 100 µM (inactive),16.5 µM (inactive),24.2 µM (inactive),> 100 µM (inactive),26.2 µM (inactive),> 100 µM (inactive),81.7 µM (inactive),40.7 µM (inactive),68.5 µM (inactive),35.8 µM (inactive),87.1 µM (inactive),23.6 µM (inactive),> 100 µM (inactive),16.2 µM (inactive),11.9 µM (inactive),42.7 µM (inactive)
CC(C)(Br)C(=O)/C=C/c1ccccc1,0.485 µM (active),14.8 µM (inactive),6.12 µM (inactive),8.24 µM (inactive),5.71 µM (inactive),4.58 µM (inactive),11.5 µM (inactive),1.32 µM (inactive),8.79 µM (inactive),5.46 µM (inactive),1.41 µM (inactive),1.94 µM (inactive),2.13 µM (inactive),1.83 µM (inactive),11.6 µM (inactive),22 µM (inactive),2.39 µM (inactive),6.95 µM (inactive),5.73 µM (inactive),1.84 µM (inactive)
COc1cc(OC)c(/C=N/N=C(\N)NO)c(OC)c1,> 100 µM (inactive),60.8 µM (inactive),> 100 µM (inactive),> 100 µM (inactive),85.5 µM (inactive),55.8 µM (inactive),> 100 µM (inactive),> 100 µM (inactive),> 100 µM (inactive),49.8 µM (inactive),> 100 µM (inactive),> 100 µM (inactive),> 100 µM (inactive),> 100 µM (inactive),> 100 µM (inactive),> 100 µM (inactive),> 100 µM (inactive),> 100 µM (inactive),25.6 µM (inactive),29 µM (inactive)
CC(Cc1ccc(Cl)cc1Cl)NO (centres undefined),> 100 µM (inactive),> 100 µM (inactive),> 100 µM (inactive),> 100 µM (inactive),> 100 µM (inactive),> 100 µM (inactive),80 µM (inactive),> 100 µM (inactive),> 100 µM (inactive),> 100 µM (inactive),83.6 µM (inactive),> 100 µM (inactive),> 100 µM (inactive),> 100 µM (inactive),95.7 µM (inactive),> 100 µM (inactive),> 100 µM (inactive),> 100 µM (inactive),> 100 µM (inactive),> 100 µM (inactive)
O=C1CCCCc2cccc(O)c21,> 100 µM (inactive),–,> 100 µM (inactive),> 100 µM (inactive),> 100 µM (inactive),> 100 µM (inactive),> 100 µM (inactive),> 100 µM (inactive),> 100 µM (inactive),> 100 µM (inactive),> 100 µM (inactive),> 100 µM (inactive),> 100 µM (inactive),> 100 µM (inactive),> 100 µM (inactive),> 100 µM (inactive),> 100 µM (inactive),> 100 µM (inactive),> 100 µM (inactive),> 100 µM (inactive)
CC(=O)OCC1(CNc2nc(N)ncc2C#N)CC(CCc2ccccc2)C1 (centres undefined),40.4 µM (inactive),15.5 µM (inactive),4 µM (inactive),75.3 µM (inactive),32.1 µM (inactive),14.4 µM (inactive),23.9 µM (inactive),4.58 µM (inactive),10.4 µM (inactive),26.2 µM (inactive),2.89 µM (inactive),2.49 µM (inactive),50.2 µM (inactive),> 100 µM (inactive),1.62 µM (inactive),–,> 100 µM (inactive),31.3 µM (inactive),46 µM (inactive),10.7 µM (inactive)
C[n+]1ccn2c3nc4ccccc4nc3c([O-])c(C#N)c21,> 48.5 µM (inactive),> 29.5 µM (inactive),> 100 µM (inactive),> 100 µM (inactive),> 100 µM (inactive),> 10 µM (inactive),> 100 µM (inactive),> 100 µM (inactive),> 100 µM (inactive),> 100 µM (inactive),> 100 µM (inactive),> 100 µM (inactive),> 56.6 µM (inactive),> 4.65 µM (inactive),> 4.65 µM (inactive),> 100 µM (inactive),> 100 µM (inactive),> 100 µM (inactive),> 100 µM (inactive),> 100 µM (inactive)
COc1ccc(C(SCCO)(c2ccc(OC)cc2)c2ccc(OC)cc2)cc1,14.2 µM (inactive),17.7 µM (inactive),20.6 µM (inactive),11.2 µM (inactive),23.4 µM (inactive),16.4 µM (inactive),17.2 µM (inactive),14 µM (inactive),19.8 µM (inactive),5.79 µM (inactive),10.9 µM (inactive),17.7 µM (inactive),14.9 µM (inactive),14.1 µM (inactive),12.2 µM (inactive),26.9 µM (inactive),15 µM (inactive),10.6 µM (inactive),14 µM (inactive),13 µM (inactive)
CCOC(=O)NNC(=O)NCc1cccc(CNC(=O)NNC(=O)OCC)c1,> 100 µM (inactive),> 100 µM (inactive),> 100 µM (inactive),> 100 µM (inactive),> 100 µM (inactive),–,> 100 µM (inactive),> 100 µM (inactive),> 100 µM (inactive),> 100 µM (inactive),> 100 µM (inactive),> 100 µM (inactive),> 100 µM (inactive),> 100 µM (inactive),> 100 µM (inactive),> 100 µM (inactive),> 100 µM (inactive),> 100 µM (inactive),> 100 µM (inactive),> 100 µM (inactive)
COc1ccc(-c2c(C#N)c(N)n(C3OCC(O)C(O)C3O)c(=S)c2C#N)cc1 (centres undefined),> 100 µM (inactive),> 100 µM (inactive),> 100 µM (inactive),–,> 100 µM (inactive),> 100 µM (inactive),> 100 µM (inactive),> 100 µM (inactive),> 100 µM (inactive),> 100 µM (inactive),> 100 µM (inactive),> 100 µM (inactive),> 100 µM (inactive),21.6 µM (inactive),> 100 µM (inactive),> 100 µM (inactive),> 100 µM (inactive),–,> 100 µM (inactive),> 100 µM (inactive)
O=C1C(C(O)(C(F)(F)Cl)C(F)(F)Cl)CCCC1C(O)(C(F)(F)Cl)C(F)(F)Cl (centres undefined),> 10 µM (inactive),> 10 µM (inactive),> 10 µM (inactive),> 10 µM (inactive),> 10 µM (inactive),> 10 µM (inactive),> 10 µM (inactive),> 10 µM (inactive),> 10 µM (inactive),> 10 µM (inactive),–,> 10 µM (inactive),> 10 µM (inactive),> 10 µM (inactive),> 10 µM (inactive),> 10 µM (inactive),> 10 µM (inactive),> 10 µM (inactive),> 10 µM (inactive),–
COc1cc(CC(C)NC(C)=O)cc(OC)c1 (centres undefined),> 100 µM (inactive),> 100 µM (inactive),> 100 µM (inactive),> 100 µM (inactive),> 100 µM (inactive),> 100 µM (inactive),> 100 µM (inactive),> 100 µM (inactive),> 100 µM (inactive),> 100 µM (inactive),> 100 µM (inactive),> 100 µM (inactive),> 100 µM (inactive),> 100 µM (inactive),> 100 µM (inactive),> 100 µM (inactive),> 100 µM (inactive),> 100 µM (inactive),> 100 µM (inactive),> 100 µM (inactive)
NC(Cc1ccc(CP(=O)(O)O)cc1)C(=O)O (centres undefined),–,> 100 µM (inactive),11.5 µM (inactive),> 100 µM (inactive),> 100 µM (inactive),–,> 100 µM (inactive),> 100 µM (inactive),> 100 µM (inactive),> 100 µM (inactive),> 100 µM (inactive),> 100 µM (inactive),> 100 µM (inactive),> 100 µM (inactive),> 100 µM (inactive),> 100 µM (inactive),> 100 µM (inactive),> 100 µM (inactive),> 100 µM (inactive),> 100 µM (inactive)
Brc1ccc(/N=N/N2CCCCC2)cc1,44.3 µM (inactive),–,88.1 µM (inactive),69.3 µM (inactive),> 100 µM (inactive),67 µM (inactive),65.5 µM (inactive),35.7 µM (inactive),> 100 µM (inactive),34.3 µM (inactive),19.9 µM (inactive),62.1 µM (inactive),45.6 µM (inactive),20.3 µM (inactive),34.5 µM (inactive),> 100 µM (inactive),52.7 µM (inactive),54 µM (inactive),72.9 µM (inactive),60 µM (inactive)
